For experiment [1], the system named is GABAA receptor complex (TBPS binding). The experiment in a line: TBPS Binding Assay. The arrangement: species or system Wistar rats. The following applies: [35S]TBPS 0.4 nM, GABA 1 μM, rat cerebral cortex membrane, +% inverse agonistic, 0% antagonistic. Here is the method: The TBPS (t-butylbicyclophosphonothionate) binding assay and the preparation of the membrane specimen were done in a similar manner to the method of Biggio, G. et al. [cf. European Journal of Pharmacology, vol.
That is, to the cerebral cortex was added a 50-fold volume of an ice-cooled buffer (a 50 mM Tris-citrate buffer containing 100 mM sodium chloride, pH 7.4) and the mixture was homogenized at 0-4° C. and then centrifuged at 20,000 g for 20 minutes. The pellets thus obtained were once subjected to homogenization in a buffer and centrifugation by the same procedure as above and then kept in freezed state at -80° C. for more than 20 hours. On the test day, the freezed pellets were thawed and then subjected twice to the homogenization-centrifugation procedure as described above.
Subsequently, the filter was moved into a liquid scintillation vial and thereto was added a liquid scintillation cocktail (ACS-II, manufactured by Amersham, USA, 10 ml) and allowed to stand for a fixed period of time. […] Separately, the same procedures were repeated in the presence of Picrotoxin to determine the non-specific binding amount. The non-specific binding amount was deducted from the total binding amount to give the specific binding amount. The binding activity of the test compound was calculated by a variation rate, i.e., a rate of the specific binding amount of the test compound to the specific binding amount in control (using a solvent).

In experiment [2] the test system is ddY male mice (pentylentetrazol-induced convulsion). The experiment in a line: Test of Increasing Activity on Pentylentetrazol-induced Convulsion. Type of experiment: in vivo. The following applies: Mus musculus, 0.5 h, po, pentylentetrazol 70 mg/kg s.c. 15 min later, read-out: Effects (number of animals) with increased pentylentetrazol-induced convulsion (converted). How it is done: It is known that benzodiazepine receptor inverse agonists increase convulsion induced by pentylentetrazol [cf. Progress in Neuro-Psychopharmacology and Biological Psychiatry, vol. […] Some compounds of the present invention were tested as to the activities of increasing the pentylentetrazol-induced convulsion.
A test compound (compounds disclosed in working examples) was orally administered to ddY male mice (weight; 22-25 g, five mice/group) in an amount of 5-100 mg/kg. […] The effects were evaluated by the number of mice among five mice, of which the convulsion increasing effects were observed.

The next experiment deals with benzodiazepine receptor. The experiment in a line: Benzodiazepine Receptor Binding Assay. The note with it: read-out: BZP-receptor Binding IC50; [3H]-diazepam 1.5 nM; rat brain crude synaptosome membrane; 0° C., 20 min.

As for `Cc1nc(-c2cc3c(-c4ccccc4)nccc3[nH]c2=O)no1` [Example 4], the “TBPS binding Variation Rate” value in experiment [1] came out at 20%. The responders at 10 mg/kg in experiment [2] is 80%. Besides, the half-maximal inhibitory concentration (IC50) (usually the midpoint of a concentration-inhibition curve) at benzodiazepine receptor amounted to 1.65 nM.

Turning to `Cc1nc(-c2cc3c(-c4cccc(F)c4)nccc3[nH]c2=O)no1` [Example 5], the “TBPS binding Variation Rate” value in experiment [1] came out at 21%. In addition, the responders at 5 mg/kg in experiment [2] (5 mg/kg) is 100%. Further, the IC50 on benzodiazepine receptor was 1.64 nM.

With `Cc1nc(-c2cc3c(-c4ccc(F)cc4)nccc3[nH]c2=O)no1` [Example 6], the “TBPS binding Variation Rate” value in experiment [1] was determined as 15%. In addition, the responders at 100 mg/kg in experiment [2] is 80%. On benzodiazepine receptor, the concentration for half-maximal inhibition (IC50) was 2.98 nM.

Take `COc1ccc(-c2nccc3[nH]c(=O)c(-c4noc(C)n4)cc23)cc1` [Example 11, 3-(5-Methyl-1,2,4-oxadiazol-3-yl)-5-(4-methoxyphenyl)-1,6-naphthyridin-2(1H)-one]: in experiment [1], the “TBPS binding Variation Rate” value was determined as 21%. In addition, the responders at 10 mg/kg in experiment [2] was 80%. Moreover, the IC50 on benzodiazepine receptor turned out to be 9.77 nM.

For the molecule `CCc1nc(-c2cc3c(C4CC4C)nccc3[nH]c2=O)no1` (stereo not drawn) [Example 18, 3-(5-Ethyl-1,2,4-oxadiazol-3-yl)-5-(2-methylcyclopropyl)-1,6-naphthyridin-2(1H)-one], in experiment [1], the “TBPS binding Variation Rate” value is 10%. Further, the responders at 20 mg/kg in experiment [2] was 60%. At benzodiazepine receptor, the concentration for half-maximal inhibition (IC50) stood at 2.04 nM.

With `COc1cccc(-c2nccc3[nH]c(=O)c(-c4noc(C)n4)cc23)c1` [Example 86, 3-(5-methyl-1,2,4-oxadiazol-3-yl)-5-(3-methoxyphenyl)-1,6-naphthyridin-2(1H)-one], in experiment [1], the “TBPS binding Variation Rate” value is on record as 12%. Also, in experiment [2], the responders at 10 mg/kg was 40%. Moreover, at benzodiazepine receptor, the concentration for half-maximal inhibition (IC50) was determined as 2.21 nM.

Regarding `Cc1nc(-c2cc3c(-c4ccccc4Cl)nccc3[nH]c2=O)no1` [Example 88], the “TBPS binding Variation Rate” value in experiment [1] amounted to 41%. Moreover, the responders at 10 mg/kg in experiment [2] is 100%. Besides, at benzodiazepine receptor, the concentration for half-maximal inhibition (IC50) is 4.63 nM.

As for `Cc1nc(-c2cc3c(-c4ccccc4C)nccc3[nH]c2=O)no1` [Example 89, 3-(5-Methyl-1,2,4-oxadiazol-3-yl)-5-(2-methylphenyl)-1,6-naphthyridin-2(1H)-one], the “TBPS binding Variation Rate” value in experiment [1] was 22%. In experiment [2], the responders at 50 mg/kg was 100%. The half-maximal inhibitory concentration (IC50) at benzodiazepine receptor amounted to 10.5 nM.

Consider `Cc1nc(-c2cc3c(-c4ccncc4)nccc3[nH]c2=O)no1` [Example 94, 3-(5-Methyl-1,2,4-oxadiazol-3-yl)-5-(4-pyridyl)-1,6-naphthyridin-2(1H)-one], for which the “TBPS binding Variation Rate” value in experiment [1] was 34%. For the same molecule, in experiment [2], the responders at 50 mg/kg was 80%. Besides, the half-inhibitory concentration (IC50) on benzodiazepine receptor turned out to be 4.49 nM.

Turning to `CCc1nc(-c2cc3c(-c4ccco4)nccc3[nH]c2=O)no1` [Example 102], the “TBPS binding Variation Rate” value in experiment [1] came out at 33%. Besides, in experiment [2], the responders at 10 mg/kg was 100%. In addition, the 50% inhibitory concentration (IC50) at benzodiazepine receptor was 0.81 nM.

`CCc1nc(-c2cc3c(-c4cccs4)nccc3[nH]c2=O)no1` [Example 103, 3-(5-Ethyl-1,2,4-oxadiazol-3-yl)-5-(2-thienyl)-1,6-naphthyridin-2(1H)-one]: the “TBPS binding Variation Rate” value in experiment [1] was 21%. Moreover, the responders at 10 mg/kg in experiment [2] was 40%. The IC50 at benzodiazepine receptor came out at 0.83 nM.

Regarding `CCc1nc(-c2cc3c(-c4ccsc4)nccc3[nH]c2=O)no1` [Example 105], in experiment [1], the “TBPS binding Variation Rate” value stood at 25%. For the same molecule, the responders at 50 mg/kg in experiment [2] is 80%. Moreover, the IC50 at benzodiazepine receptor is 1.08 nM.

As to `CCc1noc(-c2cc3c(-c4cccs4)nccc3[nH]c2=O)n1` [Example 173, 3-(3-ethyl-1,2,4-oxadiazol-5-yl)-5-(2-thienyl)-1,6-naphthyridin-2(1H)-one], the “TBPS binding Variation Rate” value in experiment [1] is 18%. Also, the responders at 20 mg/kg in experiment [2] was 100%. On benzodiazepine receptor, the IC50 turned out to be 0.94 nM.

With `Cc1cccc(-c2nccc3[nH]c(=O)c(-c4nc(C)no4)cc23)c1` [Example 183, 3-(3-Methyl-1,2,4-oxadiazol-5-yl)-5-(3-methylphenyl)-1,6-naphthyridin-2(1H)-one], the “TBPS binding Variation Rate” value in experiment [1] is on record as 8%. The responders at 20 mg/kg in experiment [2] was 80%. Further, the concentration for half-maximal inhibition (IC50) at benzodiazepine receptor worked out at 1.55 nM.

`Cc1ccc(-c2nccc3[nH]c(=O)c(-c4nc(C)no4)cc23)cc1` [Example 184]: the “TBPS binding Variation Rate” value in experiment [1] was 17%. Also, the responders at 50 mg/kg in experiment [2] is 100%.

Turning to `COc1cccc(-c2nccc3[nH]c(=O)c(-c4nc(C)no4)cc23)c1` [Example 186, 3-(3-Methyl-1,2,4-oxadiazol-5-yl)-5-(3-methoxyphenyl)-1,6-naphthyridin-2(1H)-one], the “TBPS binding Variation Rate” value in experiment [1] is 21%. Also, the responders at 50 mg/kg in experiment [2] is 80%. In addition, at benzodiazepine receptor, the half-inhibitory concentration (IC50) was found to be 1.55 nM.

For the molecule `CCc1noc(-c2cc3c(C)nccc3[nH]c2=O)n1` [Example 191, 3-(3-Ethyl-1,2,4-oxadiazol-5-yl)-5-methyl-1,6-naphthyridin-2(1H)-one], in experiment [1], the “TBPS binding Variation Rate” value is 18%. In experiment [2], the responders at 10 mg/kg is 100%.

As to `CCCc1nccc2[nH]c(=O)c(-c3nc(CC)no3)cc12` [Example 192], in experiment [1], the “TBPS binding Variation Rate” value is given as 13%. For the same molecule, the responders at 100 mg/kg in experiment [2] was 100%. In addition, the IC50 at benzodiazepine receptor is 4.22 nM.

Take `CCc1noc(-c2cc3c(-c4cccc(F)c4)nccc3[nH]c2=O)n1` [Example 200, 3-(3-Ethyl-1,2,4-oxadiazol-5-yl)-5-(3-fluorophenyl)-1,6-naphthyridin-2(1H)-one]: the “TBPS binding Variation Rate” value in experiment [1] is reported as 17%. For the same molecule, in experiment [2], the responders at 50 mg/kg was 80%. Moreover, the IC50 at benzodiazepine receptor came out at 0.92 nM.

For the molecule `CCc1noc(-c2cc3c(-c4ccc(OC)cc4)nccc3[nH]c2=O)n1` [Example 210, 3-(3-Ethyl-1,2,4-oxadiazol-5-yl)-5-(4-methoxyphenyl)-1,6-naphthyridin-2(1H)-one], the “TBPS binding Variation Rate” value in experiment [1] is reported as 15%. In addition, the responders at 10 mg/kg in experiment [2] is 80%. The half-maximal inhibitory concentration (IC50) at benzodiazepine receptor is 3.41 nM.

Consider `CCc1noc(-c2cc3c(-c4ccncc4)nccc3[nH]c2=O)n1` [Example 213, 3-(3-Ethyl-1,2,4-oxadiazol-5-yl)-5-(4-pyridyl)-1,6-naphthyridin-2(1H)-one], for which, in experiment [1], the “TBPS binding Variation Rate” value is 26%. The responders at 10 mg/kg in experiment [2] is 100%. Moreover, at benzodiazepine receptor, the IC50 was 2.07 nM.

On to `CCCc1noc(-c2cc3c(-c4ccco4)nccc3[nH]c2=O)n1` [Example 220], for which the responders at 20 mg/kg in experiment [2] was 80%. Moreover, the IC50 on benzodiazepine receptor came to 0.93 nM.

For `CC(C)c1noc(-c2cc3c(-c4ccco4)nccc3[nH]c2=O)n1` [Example 229], the “TBPS binding Variation Rate” value in experiment [1] is reported as 10%. Further, the IC50 at benzodiazepine receptor came to 1.12 nM.

With `CC(C)c1nccc2[nH]c(=O)c(-c3nc(C4CC4)no3)cc12` [Example 233], the “TBPS binding Variation Rate” value in experiment [1] amounted to 31%. Moreover, the IC50 at benzodiazepine receptor was found to be 1.58 nM.

Take `O=c1[nH]c2ccnc(-c3cccc(Cl)c3)c2cc1-c1nc(C2CC2)no1` [Example 240]: the “TBPS binding Variation Rate” value in experiment [1] is -13%. Further, the IC50 at benzodiazepine receptor is 2.51 nM.

With `O=c1[nH]c2ccnc(-c3ccc(Cl)cc3)c2cc1-c1nc(C2CC2)no1` [Example 241], the “TBPS binding Variation Rate” value in experiment [1] is on record as -14%. The IC50 on benzodiazepine receptor stood at 6.08 nM.

On to `Cc1ccc(-c2nccc3[nH]c(=O)c(-c4nc(C5CC5)no4)cc23)cc1` [Example 244], for which the “TBPS binding Variation Rate” value in experiment [1] is recorded as -15%. Besides, the IC50 on benzodiazepine receptor stood at 4.12 nM.

`O=c1[nH]c2ccnc(-c3ccco3)c2cc1-c1nc(C2CC2)no1` [Example 245]: the “TBPS binding Variation Rate” value in experiment [1] was 13%. The IC50 at benzodiazepine receptor is 0.81 nM.

The values above are taken from US6172079A, “5-substituted-3-oxadiazolyl-1,6-naphthyridin-2(1H)-one derivatives” (Dainippon Pharmaceutical Co., Ltd., priority 1997, dated 2001).
